In ChEMBL document CHEMBL1121402, “Antitumor agents: diazomethyl ketone and chloromethyl ketone analogues prepared from N-tosyl amino acids” (1980):

Experiments:
[1] = Screening of Ehrlich ascites carcinoma cells in mice at 20 mg/kg/day intraperitoneally.; assay type: functional, Mus musculus; conditions: route intraperitoneal
[2] = species: Mus musculus; experiment: Volume of ascrit fluid collected 8 days after tumor transplantation in mice; assay type: functional
[3] = species: Mus musculus; experiment: Percentage inhibition as antitumor activity in carcinoma CF1 male mice.; assay type: functional; design: concentration or dose not given beside the values
[4] = species: Mus musculus; experiment: Anticarcinoma activity of Diazomethyl Ketone against Ehrlich ascites Carcinoma pharmacological screens were reported; 6/6; assay type: functional
[5] = species: Mus musculus; experiment: Anticarcinoma activity of Diazomethyl Ketone against Ehrlich ascites Carcinoma pharmacological screens were reported; 5/8; assay type: functional
[6] = species: Mus musculus; experiment: Volume of fluid collected 8 days after tumor transplantation in mice.; assay type: functional; design: unit not given beside the values
[7] = system: P388; experiment: Survival of the mice for average number of days; expressed as average survival days; assay type: functional, Mus musculus
[8] = system: P388; experiment: T/C expresses antileukemic activity measured as tested over that of control.; assay type: functional, Mus musculus
[9] = species: Mus musculus; experiment: Anticarcinoma activity of Diazomethyl Ketone against Ehrlich ascites Carcinoma pharmacological screens were reported; 5/6; assay type: functional
[10] = species: Mus musculus; experiment: Anticarcinoma activity of Diazomethyl Ketone against Ehrlich ascites Carcinoma pharmacological screens were reported; 8/8; assay type: functional
[11] = system: P388; experiment: T/C expresses antileukemic activity measured as tested over that of control; T/C >/= 120 for significant activity; assay type: functional, Mus musculus
[12] = species: Mus musculus; experiment: Anticarcinoma activity of Diazomethyl Ketone against Ehrlich ascites Carcinoma pharmacological screens were reported; 7/8; assay type: functional
[13] = species: Mus musculus; experiment: Anticarcinoma activity of Diazomethyl Ketone against Ehrlich ascites Carcinoma pharmacological screens were reported; 12/12; assay type: functional
[14] = system: P388; experiment: T/C expresses antileukemic activity measured as tested over that of control; assay type: functional, Mus musculus
[15] = system: Mus musculus; experiment: Screening of Ehrlich ascites carcinoma cells in mice at 20 mg/kg/day, intraperitoneally; assay type: functional; conditions: route intraperitoneal

Structure (SMILES) | ascrit [1] | Inhibition [3] [%] | Survival after 10 days [4] | Volume of ascrit fluid [6] | Survival [7] [days] | T/C [8] | Survival after 10 days [9] | further results
Cc1ccc(S(=O)(=O)NC(C(=O)CCl)C(C)C)cc1 (stereo unspecified) | 46.9 | 91.4 | 6 |  |  |  |  | Volume of ascrit fluid [2]: 0.63
CCC(C)C(NS(=O)(=O)c1ccc(C)cc1)C(=O)CCl (stereo unspecified) | 34.5 | 86.6 |  | 1.34 | 10.5 | 109 |  | Survival after 10 days [5]: 5
Cc1ccc(S(=O)(=O)NC(C)C(=O)C=[N+]=[N-])cc1 (stereo unspecified) |  | 87.1 |  | 1.02 | 11.6 | 120 | 5 | 
Cc1ccc(S(=O)(=O)NC(C)C(=O)CCl)cc1 (stereo unspecified) | 46.5 | 78.4 |  | 1.6 |  |  |  | Survival after 10 days [10]: 8
C=COC(=O)C(Cc1ccccc1)NS(=O)(=O)c1ccc(C)cc1 (stereo unspecified) | 19.2 | 56.8 |  | 7.74 |  |  | 5 | 
N#CCOC(=O)C(Cc1ccc(O)cc1)NC(=O)OCc1ccccc1 (stereo unspecified) | 19.7 | 38 | 6 | 10.82 |  |  |  | 
Cc1ccc(S(=O)(=O)N2CCC[C@H]2C(=O)C=[N+]=[N-])cc1 | 39.8 | 92.7 | 6 | 0.63 |  |  |  | 
Cc1ccc(S(=O)(=O)NCC(=O)CCl)cc1 | 0.01 | 99.9 |  | 0.04 | 13.2 |  | 5 | T/C [11]: 137
Cc1ccc(S(=O)(=O)NCCCCCC(=O)CCl)cc1 | 0.01 | 99.9 |  | 0.02 | 11.2 | 116 | 5 | 
Cc1ccc(S(=O)(=O)NC(CC(C)C)C(=O)C=[N+]=[N-])cc1 (stereo unspecified) | 42.5 | 92.2 | 6 | 0.63 | 12.1 |  |  | T/C [11]: 125
Cc1ccc(S(=O)(=O)N2C(=O)CCC2C(=O)CCl)cc1 (stereo unspecified) | 31 | 91.4 |  | 0.95 | 12.8 |  |  | T/C [11]: 133; Survival after 10 days [12]: 7
C=COC(=O)C(Cc1ccc(O)cc1)NS(=O)(=O)c1ccc(C)cc1 (stereo unspecified) | 17.5 | 75 | 6 | 4.92 |  |  |  | 
CCC(C)C(NS(=O)(=O)c1ccc(C)cc1)C(=O)C=[N+]=[N-] (stereo unspecified) | 45.4 | 74.7 |  | 1.92 | 12.1 |  | 5 | T/C [11]: 126
Cc1ccc(S(=O)(=O)NCCC(=O)C=[N+]=[N-])cc1 | 44 | 78.8 | 6 | 1.66 | 11.5 | 119 |  | 
Cc1ccc(S(=O)(=O)N2C(=O)CCC2C(=O)C=[N+]=N)cc1 (stereo unspecified) | 32 | 94.4 | 6 | 0.6 |  |  |  | 
Cc1ccc(S(=O)(=O)NC(CC(C)C)C(=O)CCl)cc1 (stereo unspecified) | 25.5 | 80.4 |  | 2.65 | 10.3 | 107 |  | Survival after 10 days [10]: 8
Cc1ccc(S(=O)(=O)NCC(=O)C=[N+]=[N-])cc1 | 56 | 99.5 | 6 | 0.03 |  |  |  | 
Cc1ccc(S(=O)(=O)N2CCCC2C(=O)CCl)cc1 (stereo unspecified) | 30 | 76.5 |  | 2.7 | 10.2 | 106 |  | Survival after 10 days [5]: 5
Cc1ccc(S(=O)(=O)NCCCCCC(=O)C=[N+]=[N-])cc1 | 42.5 | 93.8 |  | 0.5 | 11.8 | 122 | 5 | 
Cc1ccc(S(=O)(=O)NC(Cc2ccc(O)cc2)C(=O)OCC#N)cc1 (stereo unspecified) | 15.8 | 56 |  | 9.36 |  |  | 5 | 
Cc1ccc(S(=O)(=O)NC(C(=O)C=[N+]=[N-])C(C)C)cc1 (stereo unspecified) | 52.7 | 85.5 | 6 | 0.93 |  |  |  | 
Cc1ccc(S(=O)(=O)NCCC(=O)CCl)cc1 | 0.1 | 99.9 |  | 0.02 | 9.8 | 101 | 5 | 
Cc1ccc(S(=O)(=O)N[C@H](C)C(=O)CCl)cc1 | 18.9 | 98.6 |  | 0.25 | 11 | 114 | 5 | 
O=c1[nH]cc(F)c(=O)[nH]1 [FLUOROURACIL] | 32.4 | 0 |  | 0.98 | 9.66 |  |  | Survival after 10 days [13]: 12; T/C [14]: 100
N[C@@H](Cc1ccc(N(CCCl)CCCl)cc1)C(=O)O [MELPHALAN] | 0.1 | 99.9 | 6 | 3 |  |  |  | 
Sc1ncnc2nc[nH]c12 [MERCAPTOPURINE ANHYDROUS] |  | 99.9 | 6 | 0.3 |  |  |  | ascrit [15]: 0.7
